Where a SMILES comes first, the peptide text is derived from it. The star is where a group is joined. Cbz = O=C(OCc1ccccc1)*
These compounds were tested against 3CL-Pro (Severe acute respiratory syndrome coronavirus 2, UniProt P0DTD1) (assay: biochemical). Settings: not given.
For C[C@H](NC(=O)[C@H](Cc1ccccc1)NC(=O)OCc1ccccc1)C(=O)CF [Z-FA-FMK], the IC50 was 9.67 µM.

Each compound was assayed against human CatL (cathepsin-L, CTSL) (Homo sapiens, UniProt P07711) (assay: FRET peptide cleavage HTS). Settings: read-out: % inhibition at 20 uM.
Chain of human CatL (cathepsin-L, CTSL) (P07711 114-288): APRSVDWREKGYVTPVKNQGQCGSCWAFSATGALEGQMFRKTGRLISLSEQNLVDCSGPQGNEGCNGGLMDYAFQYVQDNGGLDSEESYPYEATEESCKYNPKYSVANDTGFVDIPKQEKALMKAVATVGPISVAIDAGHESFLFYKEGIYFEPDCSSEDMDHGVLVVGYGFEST
Chain of human CatL (cathepsin-L, CTSL) (P07711 292-333): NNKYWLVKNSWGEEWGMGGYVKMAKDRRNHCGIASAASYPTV
Format: biochemical
In the case of CC(C)C[C@H](NC(=O)OCc1ccccc1)C(=O)N[C@@H](C[C@@H]1CCNC1=O)C(O)S(=O)(=O)O (stereo partly drawn) [GC-376], the inhibition at 20 µM is reported as over 50%.
CC(C)C[C@@H](C=O)NC(=O)[C@H](CC(C)C)NC(=O)[C@H](CC(C)C)NC(=O)OCc1ccccc1 [MG-132] (Cbz-Leu-Leu-Leu-aldehyde) gave an inhibition at 20 µM of over 50%.
In the case of C[C@H](NC(=O)[C@H](Cc1ccccc1)NC(=O)OCc1ccccc1)C(=O)CF [Z-FA-FMK], the inhibition at 20 µM is reported as over 50%.
In the case of CCCN1CCN(c2ccc(C(=O)NC3(C(=O)NCC#N)CCCCC3)cc2)CC1 [balicatib], the inhibition at 20 µM is reported as over 50%.
In the case of CC(=O)N[C@@H](CC(C)C)C(=O)N[C@@H](CC(C)C)C(=O)N[C@H](C=O)CCCNC(=N)N [leupeptin hemisulfate], the inhibition at 20 µM is reported as over 50%.
